Laboratory results reported in ChEMBL document CHEMBL1135881, “Ribose-modified nucleosides as ligands for adenosine receptors: synthesis, conformational analysis, and biological evaluation of 1'-C-methyl adenosine analogues” (J Med Chem, 2002).

Key:
[1] = organism: Rattus norvegicus; test: % maximal inhibition of Adenylyl cyclase activity in rat cortical membranes at 10 uM; assay type: functional
[2] = biological target: Adenosine receptor A2a (Rattus norvegicus, UniProt P30543); test: Affinity to Adenosine A2A receptor of rat brain striatum using [3H]-CGS- 21680; assay type: tissue-based
[3] = biological target: Adenosine receptors; A1 & A3 (Rattus norvegicus) (UniProt P25099+P28647); test: Selectivity for Adenosine A3 over Adenosine A1 receptor; assay type: protein assay
[4] = biological target: T1, Adenosine receptor A1 (Rattus norvegicus, UniProt P25099)
T1 sequence (P25099 whole entry): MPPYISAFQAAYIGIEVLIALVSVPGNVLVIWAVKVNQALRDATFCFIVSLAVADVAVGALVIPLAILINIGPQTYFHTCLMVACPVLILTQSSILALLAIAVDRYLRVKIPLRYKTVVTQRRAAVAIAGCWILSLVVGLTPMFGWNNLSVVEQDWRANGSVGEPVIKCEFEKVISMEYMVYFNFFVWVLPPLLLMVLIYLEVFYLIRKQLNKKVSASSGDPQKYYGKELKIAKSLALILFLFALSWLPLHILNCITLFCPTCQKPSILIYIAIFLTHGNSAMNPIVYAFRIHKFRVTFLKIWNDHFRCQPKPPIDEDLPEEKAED
Description: Inhibition of [3H]CHA (N6-cyclohexyl adenosine) to rat brain membrane Adenosine A1 receptor

[5] = organism: Rattus norvegicus; test: % maximal inhibition of Adenylyl cyclase activity in rat cortical membranes at 100 uM; assay type: functional
[6] = biological target: T2, Adenosine receptor A3 (Rattus norvegicus, UniProt P28647); test: Affinity to Adenosine A3 receptor of rat testis membrane using [3H](R)-PIA with 150 nM DPCPX
T2 sequence (P28647 whole entry): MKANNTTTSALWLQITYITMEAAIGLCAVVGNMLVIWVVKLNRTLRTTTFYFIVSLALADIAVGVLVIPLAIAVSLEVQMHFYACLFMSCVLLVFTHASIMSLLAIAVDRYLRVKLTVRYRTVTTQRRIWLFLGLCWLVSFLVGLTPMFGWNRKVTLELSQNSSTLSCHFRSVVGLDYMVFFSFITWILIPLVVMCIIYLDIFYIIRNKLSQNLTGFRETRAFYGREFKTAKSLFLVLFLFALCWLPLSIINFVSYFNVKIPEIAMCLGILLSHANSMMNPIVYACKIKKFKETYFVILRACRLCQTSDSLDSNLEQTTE

[7] = organism: Rattus norvegicus; test: Inhibition of Adenylyl cyclase activity in rat cortical membranes; assay type: functional
[8] = biological target: T3, Adenosine receptor A3 (Rattus norvegicus) (UniProt P28647); test: Displacement of [3H](R)-PIA from Adenosine A3 receptor of rat testis membrane with 150 nM DPCPX at 10e-5 M
T3 sequence (whole entry): T2 sequence (P28647 whole entry)

[9] = biological target: T3, Adenosine receptor A3 (Rattus norvegicus); test: Displacement of [3H](R)-PIA from Adenosine A3 receptor of rat testis membrane with 150 nM DPCPX

Sequence of Adenosine receptor A2a (P30543 whole entry): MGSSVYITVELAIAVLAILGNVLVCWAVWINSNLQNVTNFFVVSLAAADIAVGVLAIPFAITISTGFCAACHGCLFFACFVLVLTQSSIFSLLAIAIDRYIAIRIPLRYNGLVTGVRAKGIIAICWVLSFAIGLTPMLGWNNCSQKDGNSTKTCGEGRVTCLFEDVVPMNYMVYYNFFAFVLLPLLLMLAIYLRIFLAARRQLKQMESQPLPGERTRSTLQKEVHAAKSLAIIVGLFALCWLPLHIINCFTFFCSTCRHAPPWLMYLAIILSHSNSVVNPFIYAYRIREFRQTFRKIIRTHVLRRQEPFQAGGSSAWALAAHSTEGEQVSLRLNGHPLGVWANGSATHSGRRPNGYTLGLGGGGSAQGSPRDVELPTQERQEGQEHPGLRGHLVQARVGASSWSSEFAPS

SMILES	Selectivity [3]	Ki [4] [nM]	Max inhibition [5] [%]	Ki [6] [nM]	IC50 [7] [nM]	further results
OC[C@H]1O[C@@H](n2cnc3c(NC4CCCC4)ncnc32)[C@H](O)[C@@H]1O [N6-CYCLOPENTYLADENOSINE]						Max inhibition [1]: 15.5%; Ki [2]: 380 nM
C[C@@H](Cc1ccccc1)Nc1ncnc2c1ncn2C1O[C@H](CO)[C@@H](O)[C@@]1(C)O (some centres undefined)	200	50				
C[C@@]1(n2cnc3c(NC4CCCC4)ncnc32)O[C@H](CO)[C@@H](O)[C@H]1O	52	100	17.4	5170	357	
C[C@@]1(O)[C@@H](CO)O[C@@H](n2cnc3c(N)ncnc32)[C@@H]1O	> 202					
C[C@@H](Cc1ccccc1)Nc1ncnc2c1ncn2[C@]1(C)O[C@H](CO)[C@@H](O)[C@H]1O		270	29	6160	140	
C[C@H](Cc1ccccc1)Nc1ncnc2c1ncn2[C@]1(C)O[C@H](CO)[C@@H](O)[C@H]1O			23.7	670	65	
C[C@@]1(O)[C@H](O)[C@@H](CO)O[C@H]1n1cnc2c(N)ncnc21		740				Displacement [8]: 0%

The remaining molecules from weak to strong by Ki [4], led by results:

Selectivity [3]	Ki [4] [nM]	Max inhibition [5] [%]	Ki [6] [nM]	IC50 [7] [nM]	SMILES	further results
> 1.3	7700	22		3440	C[C@@]1(n2cnc3c(N)ncnc32)O[C@H](CO)[C@@H](O)[C@H]1O	Displacement [9]: 19%
22.1	9.5				C[C@@]1(O)[C@H](O)[C@@H](CO)O[C@H]1n1cnc2c(NC3CCCC3)ncnc21	
230	4.7				C[C@H](Cc1ccccc1)Nc1ncnc2c1ncn2[C@@H]1O[C@H](CO)[C@@H](O)[C@@]1(C)O	Ki [2]: 7400 nM
